In US11299480B2, “2-arylsulfonamido-N-arylacetamide derivatized STAT3 inhibitors” (University of Hawaii, priority 2017, dated 2022):
Read-outs that look alike come from different tables or passages of the source.

How the values were obtained:
in vitro [1] = settings: mouse, liver microsomes
in vitro [2] = settings: human, liver microsomes
[3] = Aqueous solubility (PBS, SGF, SIF)
Caco-2 cells = assay: Cell membrane permeability, Caco-2 cells assay; settings: for Caco-2 Cells Permeability A to B / Caco-2 Cells Recovery A to B: apical to basolateral; for Caco-2 Cells Permeability A to B / Caco-2 Cells Permeability B to A: first number of cell, 10^−6 cm/sec; for Caco-2 Cells Recovery A to B / Caco-2 Cells Recovery B to A: second number of cell; for Caco-2 Cells Permeability B to A / Caco-2 Cells Recovery B to A: basolateral to apical
[4] = Mouse liver microsomal (MLM) metabolic stability; settings: mouse, liver microsomes
[5] = Human liver microsomal (HLM) metabolic stability; settings: liver microsomes
in vitro [6] = settings: human, Caco-2
Stat1 = Stat1 DNA-binding activity in vitro, EMSA (MGFe probe); format: biochemical; settings: 10 μM or 0-30 μM compound
From the text: FIG. 2. Effects of select compounds of the present invention on Stat1 and Stat5 DNA-binding activity. […] Positions of Stat:DNA complexes in gel are labeled; control lanes (0 or Con) represent nuclear extracts pre-treated with 10% DMSO. Data are representative of 1-3 independent determinations. […] Where appropriate, bands corresponding to Stat3:DNA complexes were scanned and quantified for each concentration of compound using ImageJ and plotted as percent of control (DMSO) against concentration of compound, from which the IC50 values were derived. In order to determine the specificity of select new analogs active against Stat3 activity, the inventors investigated the effects on the inhibition of other STAT family members, including Stat1 and Stat5 DNA-binding activity in vitro.

Stat3 [7] = biological target: Stat3 (Homo sapiens (Human), UniProt P40763); assay: Stat3 DNA-binding activity in nuclear extracts of treated MDA-MB-231 cells, EMSA; format: cell-based; settings: 10 μM
Sequence of Stat3 (Homo sapiens (Human), UniProt P40763) (P40763 whole entry): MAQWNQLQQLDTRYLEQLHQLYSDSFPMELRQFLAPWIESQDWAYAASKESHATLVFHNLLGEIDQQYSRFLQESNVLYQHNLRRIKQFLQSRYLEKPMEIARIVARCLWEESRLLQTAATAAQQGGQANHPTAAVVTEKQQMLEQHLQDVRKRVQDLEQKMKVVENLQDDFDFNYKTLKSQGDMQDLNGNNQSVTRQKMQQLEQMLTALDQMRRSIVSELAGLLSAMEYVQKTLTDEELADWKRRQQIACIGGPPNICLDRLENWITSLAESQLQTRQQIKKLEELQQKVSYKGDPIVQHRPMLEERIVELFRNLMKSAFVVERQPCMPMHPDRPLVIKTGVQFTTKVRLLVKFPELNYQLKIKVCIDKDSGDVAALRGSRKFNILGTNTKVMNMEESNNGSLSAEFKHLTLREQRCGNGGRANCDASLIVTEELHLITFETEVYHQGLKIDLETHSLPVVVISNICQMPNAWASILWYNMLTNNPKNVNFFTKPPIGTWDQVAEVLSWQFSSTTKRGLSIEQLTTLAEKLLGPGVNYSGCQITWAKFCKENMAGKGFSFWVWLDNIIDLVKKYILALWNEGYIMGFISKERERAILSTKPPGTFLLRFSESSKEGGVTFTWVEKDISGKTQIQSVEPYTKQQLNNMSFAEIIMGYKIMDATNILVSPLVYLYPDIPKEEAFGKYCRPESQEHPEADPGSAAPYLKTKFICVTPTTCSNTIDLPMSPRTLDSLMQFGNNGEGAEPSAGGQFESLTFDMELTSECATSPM
Protocol: (§1) FIG. 3. Effects of select compounds of the present invention on Stat3 DNA-binding activity and Stat3 tyrosine phosphorylation in cells. (FIG. 3A) EMSA analysis of Stat3 DNA-binding activity in nuclear extracts of equal total protein prepared from cells treated with DMSO (0 as control, Con), 5 or 10 μM of compounds for 1-34 h. Positions of Stat3:DNA complexes in gel are labeled. […] Positions of Stat3:DNA complexes or proteins in gel are shown; control (0 or Con) lane represents whole-cell lysates or nuclear extracts prepared from 0.05% DMSO-treated cells. […] Data are representative of 2-3 independent determinations.
The ^32P-labeled oligonucleotide probes used were hSIE (high affinity sis-inducible element from the c-fos gene, m67 variant, 5′-[…]) (SEQ ID NO: 1) that binds Stat1 and Stat3 and MGFe (mammary gland factor element from the bovine β-casein gene promoter, 5′-[…]) (SEQ ID NO: 2) for Stat1 and Stat5 binding. Except where indicated, nuclear extracts were pre-incubated with compound for 30 min at room temperature prior to incubation with the radiolabeled probe for 30 min at 30° C. before subjecting to EMSA analysis. Where appropriate, bands corresponding to Stat3:DNA complexes were scanned and quantified for each concentration of compound using ImageJ and plotted as percent of control (DMSO) against concentration of compound, from which the IC50 values were derived.
Select compounds of the invention were investigated for their inhibitory effects of the active analogs on intracellular Stat3 signaling. […] Nuclear extracts were prepared and subjected to EMSA analysis for Stat3 DNA-binding activity. […] Stat3 DNA-binding activity in MDA-MB-231 cells was inhibited by both Examples 1 and 5 following treatment at 3 h, with little change at 1 h (FIG. 3A).

Stat3 [8] = biological target: Stat3 (Mus musculus, UniProt P42227); format: biochemical
Sequence of Stat3 (Mus musculus, UniProt P42227) (P42227 2-770 limits assumed): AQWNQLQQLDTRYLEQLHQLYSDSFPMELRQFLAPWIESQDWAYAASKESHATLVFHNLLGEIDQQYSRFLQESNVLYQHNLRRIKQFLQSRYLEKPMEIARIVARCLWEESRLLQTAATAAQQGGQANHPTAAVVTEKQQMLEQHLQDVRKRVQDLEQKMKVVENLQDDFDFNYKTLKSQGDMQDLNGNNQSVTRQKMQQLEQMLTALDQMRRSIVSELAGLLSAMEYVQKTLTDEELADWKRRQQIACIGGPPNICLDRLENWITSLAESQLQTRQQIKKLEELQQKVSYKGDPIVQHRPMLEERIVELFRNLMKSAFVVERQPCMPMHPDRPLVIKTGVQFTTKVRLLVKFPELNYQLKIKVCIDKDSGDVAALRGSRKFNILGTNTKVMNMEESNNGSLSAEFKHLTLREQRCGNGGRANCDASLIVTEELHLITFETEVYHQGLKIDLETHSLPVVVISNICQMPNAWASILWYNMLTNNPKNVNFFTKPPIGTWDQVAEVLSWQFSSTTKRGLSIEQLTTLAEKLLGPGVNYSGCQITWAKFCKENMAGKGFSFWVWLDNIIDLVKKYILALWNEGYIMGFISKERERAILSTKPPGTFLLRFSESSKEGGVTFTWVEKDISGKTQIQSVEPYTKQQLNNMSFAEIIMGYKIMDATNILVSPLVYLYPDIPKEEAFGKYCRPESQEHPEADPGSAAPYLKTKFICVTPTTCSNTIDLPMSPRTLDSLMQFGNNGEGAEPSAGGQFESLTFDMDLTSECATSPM
Protocol: FIG. 1. Effect of select compounds of the present invention on Stat3 DNA-binding activity in vitro. […] Positions of Stat3:DNA complexes in gel are labeled; control lanes (0) represent nuclear extracts pre-treated with 10% DMSO.
Except where indicated, nuclear extracts were pre-incubated with compound for 30 min at room temperature prior to incubation with the radiolabeled probe for 30 min at 30° C. before subjecting to EMSA analysis. Where appropriate, bands corresponding to Stat3:DNA complexes were scanned and quantified for each concentration of compound using ImageJ and plotted as percent of control (DMSO) against concentration of compound, from which the IC50 values were derived.

pY705Stat3 [9] = assay: Constitutive Stat3 tyrosine phosphorylation, immunoblot, MDA-MB-231 cells; format: cell-based, human; settings: MDA-MB-231, 5 μM, 1 h treatment
Protocol: as §1
(§2) All antibodies tested were purchased from Cell Signaling Technology.
(§3) Altogether, the new analogs show strong, albeit variable degrees of inhibition of constitutive Stat3 DNA-binding activity and Tyr phosphorylation in human tumor cells.

pY705Stat3 [10] = assay: Constitutive Stat3 tyrosine phosphorylation, immunoblot, MDA-MB-468 cells; format: cell-based, human; settings: MDA-MB-468, 5 μM, 1 h treatment (inhibition stated only for MDA-MB-231)
Protocol: as §1, §2, §3

MDA-MB-231 = assay: CyQuant cell viability assay, MDA-MB-231; format: cell-based, human; settings: MDA-MB-231, CyQuant, 0-10 μM, 72 h
Protocol: (§4) FIG. 6. Effects of select compounds of the present invention on cell viability. […] Cells were first grown in 6-well plates then were treated once with 0-10 μM of the indicated compounds for 72 h. Viable cells were assayed using CyQuant cell proliferation kit and plotted as % cell viability against concentration. Control (0) represents 0.05% DMSO-treated cells. Values, mean ± S.D. of 2-3 independent determinations.
(§5) Cells in 6-well or 96-well plates were treated with or without compounds for the indicated concentrations and time, and subjected to MTT assay or CyQuant cell proliferation assay (Invitrogen/ThermoFisher Scientific), or harvested and the viable cells were counted by trypan blue exclusion with phase-contrast microscopy.
(§6) Constitutive Stat3 activity promotes tumor cell growth and proliferation and survival (Darnell J E (2005) Nat Med. 11:595-6; Bowman T, et al., (2000) Oncogene 19:2474-2488). Some of the compounds of the present invention were tested against tumor cells harboring constitutively-active Stat3.

MDA-MB-468 = assay: CyQuant cell viability assay, MDA-MB-468; format: cell-based, human; settings: MDA-MB-468, CyQuant, 0-10 μM, 72 h
Protocol: as §4, §5, §6

MCF7 = assay: CyQuant cell viability assay, MCF7; format: cell-based, human; settings: MCF7 (no aberrantly-active Stat3), CyQuant, 72 h
Protocol: as §4, §5, §6

Stat5 = Stat5 DNA-binding activity in vitro, EMSA (MGFe probe); format: biochemical; settings: 10 μM or 0-30 μM compound
From the text: FIG. 2. […] Positions of Stat:DNA complexes in gel are labeled; control lanes (0 or Con) represent nuclear extracts pre-treated with 10% DMSO. […] Where appropriate, bands corresponding to Stat3:DNA complexes were scanned and quantified for each concentration of compound using ImageJ and plotted as percent of control (DMSO) against concentration of compound, from which the IC50 values were derived.

[11] = simulated gastric fluid (SGF), pH 1.2, simulated gastric fluid
[12] = Stat3 DNA-binding activity in vitro, nuclear extracts pre-incubated with compound 30 min at room temperature, hSIE probe, read-out: EMSA IC50

Compound: C[C@H](C(=O)N(Cc1ccc(C2CCCCC2)cc1)c1ccc(C(=O)[O-])c(O)c1)N(C)S(=O)(=O)c1c(F)c(F)c(F)c(F)c1F.[Na+]
- solubility (physchem; [11]): 1.3 µg/mL
- half-life (in vitro [1]): ≤ 5 min
- half-life (in vitro [2]): ≤ 5 min
- solubility in PBS buffer pH 7.4 [3]: 127 μg/mL
- solubility in simulated intestinal fluid (SIF) [3]: 127 µg/mL
- Solubility PBS ([3]; PBS buffer pH 7.4): 127 micrograms/milliliter
- Solubility SIF ([3]; simulated intestinal fluid): 127 micrograms/milliliter
- Caco-2 Cells Permeability A to B (Caco-2 cells): 0
- Caco-2 Cells Recovery A to B (Caco-2 cells): 6%
- Caco-2 Cells Permeability B to A (Caco-2 cells): 0
- Caco-2 Cells Recovery B to A (Caco-2 cells): 2%
- Caco-2 permeability (Caco-2 cells; compounds with cyclohexyl group instead of THP ring): no appreciable permeability
- Metabolic Stability Half-Life MLM [4]: 5 min
- Metabolic Stability Half-Life HLM [5]: 4 min

Compound: O=C([O-])c1ccc(N(Cc2ccc(C3CCOCC3)cc2)C(=O)[C@H]2CCCN2S(=O)(=O)c2c(F)c(F)c(F)c(F)c2F)cc1O.[Na+]
- solubility (physchem; PBS buffer, pH 7.4, aqueous buffer): 132 µg/mL
- solubility (physchem; [11]): 0.4 µg/mL
- solubility (physchem; simulated intestinal fluid (SIF), fassgf or other biorelevant): 129 µg/mL
- half-life (in vitro [1]): 18 min
- half-life (in vitro [2]): 15 min
- Papp (in vitro [6]): 0.1 ×10⁻⁶ cm/s
- Caco-2 Cells Permeability A to B (Caco-2 cells): 0.2
- Caco-2 Cells Recovery A to B (Caco-2 cells): 34%
- Caco-2 Cells Permeability B to A (Caco-2 cells): 0.2
- Caco-2 Cells Recovery B to A (Caco-2 cells): 60%

Compound: C[C@@H](C(=O)N(Cc1ccc(C2CCCCC2)cc1)c1ccc(C(=O)O)c(O)c1)N(C)S(=O)(=O)c1c(F)c(F)c(F)c(F)c1F [Example 5, (S)-4-(N-(4-Cyclohexylbenzyl)-2-((2,3,4,5,6-pentafluoro-N-methylphenyl)sulfonamido)propan-amido)-2-hydroxybenzoic acid]
- effect on Stat1 DNA-binding activity (Stat1): inhibited Stat1 activity to a moderate extent
- Stat3 DNA-binding activity in MDA-MB-231 cells (Stat3 [7]; 1 h treatment): little change
- Stat3 DNA-binding activity in MDA-MB-231 cells (Stat3 [7]; 3 h treatment): inhibited
- Stat3 DNA-binding activity in MDA-MB-231 cells (Stat3 [7]; 24 h treatment): inhibited

Compound: O=C(O)c1ccc(N(Cc2ccc(C3CCCCC3)cc2)C(=O)[C@H]2CCCN2S(=O)(=O)c2c(F)c(F)c(F)c(F)c2F)cc1O [Example 25, (R)-4-(N-(4-Cyclohexylbenzyl)-1-((pentafluorophenyl)sulfonyl)pyrrolidine-2-carboxamido)-2-hydroxybenzoic acid]
- IC50 (Stat3 [8]; EMSA, read-out: IC50, inhibition of Stat3 DNA-binding activity in vitro): 2.4 µM
- IC50 (Stat3 [8]; [12]): 2.4 ± 0.4 µM
- pY705Stat3 levels (pY705Stat3 [9]): inhibited pY705Stat3 levels
- pY705Stat3 levels (pY705Stat3 [10]): only inhibited pY705Stat3 levels in MDA-MB-231
- cell viability (MDA-MB-231): suppressed the viability
- cell viability (MDA-MB-468): suppressed the viability
- cell viability (MCF7): only weakly or not inhibited

Compound: O=C(O)c1ccc(N(Cc2ccc(C3CCCCC3)cc2)C(=O)[C@@H]2CCCN2S(=O)(=O)c2c(F)c(F)c(F)c(F)c2F)cc1O [Example 26, (S)-4-(N-(4-Cyclohexylbenzyl)-1-((pentafluorophenyl)sulfonyl)pyrrolidine-2-carboxamido)-2-hydroxybenzoic acid]
- IC50 (Stat3 [8]; [12]): 7.2 ± 3.4 µM
- pY705Stat3 levels (pY705Stat3 [9]): inhibited pY705Stat3 levels
- pY705Stat3 levels (pY705Stat3 [10]): only inhibited pY705Stat3 levels in MDA-MB-231

Compound: C[C@H](C(=O)N(Cc1ccc(C2CCOCC2)cc1)c1ccc(C(=O)O)c(O)c1)N(C)S(=O)(=O)c1c(F)c(F)c(F)c(F)c1F [Example 57, (R)-2-Hydroxy-4-(2-((2,3,4,5,6-pentafluoro-N-methylphenyl)sulfonamido)-N-(4-(tetrahydro-2H-pyran-4-yl)benzyl)propanamido)benzoic acid]
- IC50 (Stat3 [8]; [12]): 5 ± 0.8 µM
- effect on Stat5 DNA-binding activity (Stat5): minimum effect

Compound: C[C@H](C(=O)N(Cc1ccc(C2CCOCC2)cc1)c1ccc(C(=O)[O-])c(O)c1)N(C)S(=O)(=O)c1c(F)c(F)c(F)c(F)c1F.[Na+] [Example 59, Sodium (R)-2-hydroxy-4-(2-((2,3,4,5,6-pentafluoro-N-methylphenyl)sulfonamido)-N-(4-(tetrahydro-2H-pyran-4-yl)benzyl)propanamido)benzoate]
- half-life (in vitro [1]): ≤ 5 min
- half-life (in vitro [2]): ≤ 5 min
- Papp B→A (in vitro [6]): 0.7 ×10⁻⁶ cm/s
- recovery (in vitro [6]): 31%
- Caco-2 Cells Recovery B to A (Caco-2 cells): 40%
- Metabolic Stability Half-Life MLM [4]: 4 min
- Metabolic Stability Half-Life HLM [5]: 5 min

Compound: O=C(O)c1ccc(N(Cc2ccc(C3CCOCC3)cc2)C(=O)[C@H]2CCCN2S(=O)(=O)c2c(F)c(F)c(F)c(F)c2F)c(F)c1 [Example 60, (R)-3-Fluoro-4-(1-((perfluorophenyl)sulfonyl)-N-(4-(tetrahydro-2H-pyran-4-yl)benzyl)pyrrolidine-2-carboxamido)benzoic acid]
- half-life (in vitro [1]): 26 min
- half-life (in vitro [2]): 54 min
- Papp (in vitro [6]): 0.2 ×10⁻⁶ cm/s
- Caco-2 Cells Permeability A to B (Caco-2 cells): 0.1
- Caco-2 Cells Recovery A to B (Caco-2 cells): 8%
- Caco-2 Cells Permeability B to A (Caco-2 cells): 0.1
- Caco-2 Cells Recovery B to A (Caco-2 cells): 67%
